Data from ChEMBL document CHEMBL1140952 (J Med Chem, 2009).

Tests used:
[1] = Antiproliferative activity against Met-dependent human GTL16 cells after 72 hrs by MTS assay; format: functional, cell-based; details: GTL 16, 72 h
[2] = molecular target: Hepatocyte growth factor receptor (Homo sapiens, UniProt P08581); experiment: Inhibition of MET
[3] = molecular target: Cytochrome P450 3A4 (Homo sapiens, UniProt P08684); experiment: Inhibition of CYP3A4; format: ADME
[4] = molecular target: Cytochrome P450 2C19 (Homo sapiens, UniProt P33261); experiment: Inhibition of CYP2C19; format: ADME
[5] = molecular target: Cytochrome P450 2D6 (Homo sapiens, UniProt P10635); experiment: Inhibition of CYP2D6; format: ADME
[6] = Metabolic stability in mouse liver microsomes assessed per mg of protein; format: ADME, Microsome
[7] = molecular target: Cytochrome P450 1A2 (Homo sapiens, UniProt P05177); experiment: Inhibition of CYP1A2; format: ADME
[8] = molecular target: Cytochrome P450 2C9 (Homo sapiens, UniProt P11712); experiment: Inhibition of CYP2C9; format: ADME
Cytochrome P450 2C9, sequence (P11712 whole entry): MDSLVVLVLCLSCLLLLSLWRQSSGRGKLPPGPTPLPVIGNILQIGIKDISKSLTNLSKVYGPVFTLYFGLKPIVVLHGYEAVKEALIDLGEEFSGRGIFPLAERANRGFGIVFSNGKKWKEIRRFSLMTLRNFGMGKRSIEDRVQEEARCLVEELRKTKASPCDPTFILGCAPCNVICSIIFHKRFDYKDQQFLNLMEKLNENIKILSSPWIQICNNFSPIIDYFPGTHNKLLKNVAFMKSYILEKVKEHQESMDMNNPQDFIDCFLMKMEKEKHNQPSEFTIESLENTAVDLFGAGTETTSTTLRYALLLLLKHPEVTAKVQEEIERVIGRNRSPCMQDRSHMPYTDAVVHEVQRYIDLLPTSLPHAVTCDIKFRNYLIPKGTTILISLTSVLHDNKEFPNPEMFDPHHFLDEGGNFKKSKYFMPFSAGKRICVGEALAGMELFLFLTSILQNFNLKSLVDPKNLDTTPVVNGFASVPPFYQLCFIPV

Hepatocyte growth factor receptor, sequence (P08581 whole entry): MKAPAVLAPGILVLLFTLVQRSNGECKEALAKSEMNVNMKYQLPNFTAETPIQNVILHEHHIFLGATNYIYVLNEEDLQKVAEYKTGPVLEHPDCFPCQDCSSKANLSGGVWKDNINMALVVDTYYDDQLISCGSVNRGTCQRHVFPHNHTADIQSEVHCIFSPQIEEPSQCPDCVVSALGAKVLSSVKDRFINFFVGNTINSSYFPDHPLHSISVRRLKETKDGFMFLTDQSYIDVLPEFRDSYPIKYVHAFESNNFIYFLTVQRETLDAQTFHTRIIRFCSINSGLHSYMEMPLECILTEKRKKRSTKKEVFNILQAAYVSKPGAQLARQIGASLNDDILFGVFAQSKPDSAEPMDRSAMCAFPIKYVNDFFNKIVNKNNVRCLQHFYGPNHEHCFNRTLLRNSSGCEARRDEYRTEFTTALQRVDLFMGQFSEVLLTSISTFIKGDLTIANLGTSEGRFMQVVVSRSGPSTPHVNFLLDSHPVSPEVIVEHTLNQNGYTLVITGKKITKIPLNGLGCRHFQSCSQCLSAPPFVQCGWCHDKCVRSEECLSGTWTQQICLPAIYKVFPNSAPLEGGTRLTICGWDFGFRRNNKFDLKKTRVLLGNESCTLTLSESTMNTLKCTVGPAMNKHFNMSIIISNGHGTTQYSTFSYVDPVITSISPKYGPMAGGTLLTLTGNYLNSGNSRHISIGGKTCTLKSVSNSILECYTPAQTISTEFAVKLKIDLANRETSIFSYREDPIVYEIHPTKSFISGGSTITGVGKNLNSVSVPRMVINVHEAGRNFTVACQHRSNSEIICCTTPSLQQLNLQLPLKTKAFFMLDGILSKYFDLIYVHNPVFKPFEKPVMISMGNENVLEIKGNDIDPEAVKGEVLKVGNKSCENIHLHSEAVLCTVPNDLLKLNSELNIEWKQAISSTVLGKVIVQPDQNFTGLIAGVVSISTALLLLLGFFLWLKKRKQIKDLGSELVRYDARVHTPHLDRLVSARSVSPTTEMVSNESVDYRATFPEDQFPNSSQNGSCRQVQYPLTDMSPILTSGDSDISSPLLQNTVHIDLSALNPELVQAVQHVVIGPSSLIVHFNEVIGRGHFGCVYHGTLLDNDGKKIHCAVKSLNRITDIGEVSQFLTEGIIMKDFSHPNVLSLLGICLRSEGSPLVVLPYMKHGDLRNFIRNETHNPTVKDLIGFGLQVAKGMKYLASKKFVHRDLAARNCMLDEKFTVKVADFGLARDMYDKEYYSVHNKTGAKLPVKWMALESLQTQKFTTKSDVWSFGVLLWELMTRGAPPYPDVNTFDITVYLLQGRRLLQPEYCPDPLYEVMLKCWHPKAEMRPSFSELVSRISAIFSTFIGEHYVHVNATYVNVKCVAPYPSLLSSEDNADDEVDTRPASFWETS
Cytochrome P450 3A4, sequence (P08684 whole entry): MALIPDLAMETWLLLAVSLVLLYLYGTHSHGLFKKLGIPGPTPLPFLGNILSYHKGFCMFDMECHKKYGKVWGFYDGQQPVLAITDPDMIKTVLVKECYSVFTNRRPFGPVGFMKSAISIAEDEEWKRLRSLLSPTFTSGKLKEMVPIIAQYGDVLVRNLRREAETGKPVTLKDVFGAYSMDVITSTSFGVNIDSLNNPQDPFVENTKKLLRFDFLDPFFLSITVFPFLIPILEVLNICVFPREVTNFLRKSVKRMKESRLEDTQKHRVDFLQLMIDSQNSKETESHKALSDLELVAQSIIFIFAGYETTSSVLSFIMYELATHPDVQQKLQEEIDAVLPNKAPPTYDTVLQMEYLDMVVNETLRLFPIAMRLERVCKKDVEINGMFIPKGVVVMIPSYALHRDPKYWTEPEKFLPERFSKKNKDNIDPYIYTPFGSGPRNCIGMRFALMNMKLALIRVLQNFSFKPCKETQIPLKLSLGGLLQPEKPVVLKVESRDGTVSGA
Cytochrome P450 1A2, sequence (P05177 whole entry): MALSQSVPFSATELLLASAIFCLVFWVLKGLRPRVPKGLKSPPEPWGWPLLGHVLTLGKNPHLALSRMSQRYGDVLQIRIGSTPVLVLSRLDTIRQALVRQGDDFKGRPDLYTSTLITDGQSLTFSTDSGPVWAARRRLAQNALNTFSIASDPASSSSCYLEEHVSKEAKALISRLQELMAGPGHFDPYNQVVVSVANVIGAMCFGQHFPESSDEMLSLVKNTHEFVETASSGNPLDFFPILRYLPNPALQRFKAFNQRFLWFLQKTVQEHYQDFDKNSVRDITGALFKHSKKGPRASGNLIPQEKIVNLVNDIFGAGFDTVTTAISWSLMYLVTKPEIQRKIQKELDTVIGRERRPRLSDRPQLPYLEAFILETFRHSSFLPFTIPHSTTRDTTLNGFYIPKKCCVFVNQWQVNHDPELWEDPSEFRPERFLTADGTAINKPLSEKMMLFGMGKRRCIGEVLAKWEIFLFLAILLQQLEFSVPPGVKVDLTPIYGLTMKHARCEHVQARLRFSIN
Cytochrome P450 2D6, sequence (P10635 whole entry): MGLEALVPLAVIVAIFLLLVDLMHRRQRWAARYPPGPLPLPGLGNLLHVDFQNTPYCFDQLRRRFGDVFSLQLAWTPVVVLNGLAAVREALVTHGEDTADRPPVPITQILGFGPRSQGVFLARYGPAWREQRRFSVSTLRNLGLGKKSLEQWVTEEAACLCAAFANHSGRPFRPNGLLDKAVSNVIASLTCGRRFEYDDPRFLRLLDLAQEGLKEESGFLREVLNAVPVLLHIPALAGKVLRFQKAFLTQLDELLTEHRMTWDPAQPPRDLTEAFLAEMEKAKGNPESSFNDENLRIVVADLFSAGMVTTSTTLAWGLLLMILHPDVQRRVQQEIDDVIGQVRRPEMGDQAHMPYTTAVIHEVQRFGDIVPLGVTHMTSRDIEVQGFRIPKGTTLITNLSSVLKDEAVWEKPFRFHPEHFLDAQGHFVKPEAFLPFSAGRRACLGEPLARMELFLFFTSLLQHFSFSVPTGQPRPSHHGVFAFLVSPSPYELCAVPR
Cytochrome P450 2C19, sequence (P33261 whole entry): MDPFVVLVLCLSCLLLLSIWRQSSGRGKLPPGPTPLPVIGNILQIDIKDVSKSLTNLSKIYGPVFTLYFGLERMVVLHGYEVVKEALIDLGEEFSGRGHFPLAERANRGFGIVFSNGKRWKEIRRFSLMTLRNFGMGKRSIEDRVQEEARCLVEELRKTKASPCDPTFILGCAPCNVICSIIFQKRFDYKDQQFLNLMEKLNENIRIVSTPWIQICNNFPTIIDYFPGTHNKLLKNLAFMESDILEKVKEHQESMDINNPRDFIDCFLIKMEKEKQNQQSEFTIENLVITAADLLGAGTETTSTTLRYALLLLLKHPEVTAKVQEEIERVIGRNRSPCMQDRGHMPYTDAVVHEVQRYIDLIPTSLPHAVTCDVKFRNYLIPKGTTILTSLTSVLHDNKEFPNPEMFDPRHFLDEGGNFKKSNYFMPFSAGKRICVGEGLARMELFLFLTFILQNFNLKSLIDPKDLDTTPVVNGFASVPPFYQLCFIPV

SMILES | IC50 [2] [nM] | IC50 [3] [nM] | IC50 [4] [nM] | IC50 [5] [nM] | Activity [6] [nmol/min/mg] | IC50 [7] [nM] | IC50 [8] [nM] | IC50 [1] [nM]
O=C(Nc1ccc(Oc2ccnc3[nH]ccc23)c(F)c1)c1cccn(-c2ccc(F)cc2)c1=O | – | – | – | – | – | – | – | 60
C#Cc1c(Oc2ccc(NC(=O)c3cccn(-c4ccc(F)cc4)c3=O)cc2F)ccnc1N | 1 | < 1000 | – | – | – | – | – | 31
Nc1nccc(Oc2ccc(NC(=O)c3cccn(-c4ccc(F)cc4)c3=O)cc2F)c1Cl | 1 | 4000 | > 20000 | > 20000 | 0.012 | > 20000 | 7000 | 57

The remaining molecules from weak to strong by IC50 [2], led by results:

IC50 [2] [nM] | IC50 [3] [nM] | IC50 [4] [nM] | IC50 [5] [nM] | Activity [6] [nmol/min/mg] | IC50 [7] [nM] | IC50 [8] [nM] | SMILES | IC50 [1] [nM]
3.8 | – | – | – | – | – | – | NCC#Cc1c(Oc2ccc(NC(=O)c3cccn(-c4ccc(F)cc4)c3=O)cc2F)ccnc1N | 210
3.4 | – | – | – | – | – | – | CC(C)c1c(Oc2ccc(NC(=O)c3cccn(-c4ccc(F)cc4)c3=O)cc2F)ccnc1N | 120
2.7 | – | – | – | – | – | – | Nc1nccc(Oc2ccc(NC(=O)c3cccn(-c4ccc(F)cc4)c3=O)cc2F)c1C#CCO | 23
